Measured values: patent publication US11230555B2, “Bicyclic RORγ modulators” (Escalier Biosciences B.V., priority 2018, dated 2022)

Target: T1, RORγt (Homo sapiens, UniProt P51449)
T1 construct: purchased reporter-cell kit
T1 sequence (P51449 269-508 limits assumed): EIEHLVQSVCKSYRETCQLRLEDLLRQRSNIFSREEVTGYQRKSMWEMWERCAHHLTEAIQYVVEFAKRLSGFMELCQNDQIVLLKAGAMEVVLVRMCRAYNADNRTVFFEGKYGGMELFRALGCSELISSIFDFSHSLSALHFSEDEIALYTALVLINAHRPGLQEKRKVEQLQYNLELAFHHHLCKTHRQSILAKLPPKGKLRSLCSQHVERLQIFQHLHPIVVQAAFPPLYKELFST
Assay: Gal4 ligand binding assay (RORγt Gal fusion reporter assay)
Assay type: cell-based
Settings: inverse agonists, luciferase reporter, 24h
In short: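 GAL4-DBD/RORγ(t) fusion stably expressed with a Gal4-UAS luciferase reporter in […] cells, which are constitutively active. Compounds were given as 2× media with 10 points from 60 μM to 3 nM (final DMSO 0.2%) for 24 h at 37° C, 5% CO2. Luminescence was normalized to DMSO control wells.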

Row | Structure (SMILES) | IC50 [nM]
1 | CC(=O)N1C2CCC1CN(Cc1ccc(-c3ccc(C(O)(C(F)(F)F)C(F)(F)F)cc3)c(C)c1)C2 [Example 71, 1-(3-((4′-(1,1,1,3,3,3-hexafluoro-2-hydroxypropan-2-yl)-2-methyl-[1,1′-biphenyl]-4-yl)methyl)-3,8-diazabicyclo[3.2.1]octan-8-yl)ethan-1-one] | 50 to 250
2 | CCc1cc(CN2CC3CCC(C2)N3S(C)(=O)=O)cc(F)c1-c1ccc(C(O)(C(F)(F)F)C(F)(F)F)cc1F [Example 17, 2-(2′-ethyl-2,6′-difluoro-4′-((8-(methylsulfonyl)-3,8-diazabicyclo[3.2.1]octan-3-yl)methyl)-[1,1′-biphenyl]-4-yl)-1,1,1,3,3,3-hexafluoropropan-2-ol] | < 50
3 | CC(C)c1cc(CN2CC3CCC(C2)N3S(C)(=O)=O)ccc1-c1ccc(C(O)(C(F)(F)F)C(F)(F)F)cc1Cl [Example 22, 2-(2-chloro-2′-isopropyl-4′-((8-(methylsulfonyl)-3,8-diazabicyclo[3.2.1]octan-3-yl)methyl)-[1,1′-biphenyl]-4-yl)-1,1,1,3,3,3-hexafluoropropan-2-ol] | 50 to 250
4 | CCc1cc(CN2CC3CCC(C2)N3C(C)=O)ccc1-c1ccc(C(O)(C(F)(F)F)C(F)(F)F)cc1 [Example 39, 1-(3-((2-ethyl-4′-(1,1,1,3,3,3-hexafluoro-2-hydroxypropan-2-yl)-[1,1′-biphenyl]-4-yl)methyl)-3,8-diazabicyclo[3.2.1]octan-8-yl)ethan-1-one] | < 50
5 | CCc1c(-c2ccc(C(O)(C(F)(F)F)C(F)(F)F)cc2)cc(F)c(CN2CC3CCC(C2)N3S(C)(=O)=O)c1F [Example 14] | < 50
6 | Cc1cc(CN2CC3CCC2CN3Cc2ccncc2)ccc1-c1ccc(C(O)(C(F)(F)F)C(F)(F)F)cc1 (stereo not drawn) [Example 76, 1,1,1,3,3,3-hexafluoro-2-(2′-methyl-4′-((5-(pyridin-4-ylmethyl)-2,5-diazabicyclo[2.2.2]octan-2-yl)methyl)-[1,1′-biphenyl]-4-yl)propan-2-ol] | 50 to 250
